In the NIST ThermoML archive (doi:10.1016/j.jct.2005.03.019):
Values joined by “and” are separate entries in the source; they are usually repeats but may differ in a detail not shown here. Identical values can stand only once. Numbers after ± are expanded uncertainties.

What was measured:
[1] = 101 kPa, Liquid, Vibrating tube method
[2] = refractive index (Na D-line) (dimensionless); conditions: 101.33 kPa, Liquid, Standard Abbe refractometry
[3] = xn = mol fraction of the nth substance listed; conditions: 101 kPa, Liquid, Vibrating tube method

| SMILES | mass density ([1]; 293.15 K) [kg/m3] | mass density ([1]; 303.15 K) [kg/m3] | mass density ([1]; 313.15 K) | mass density ([1]; 323.15 K) [kg/m3] | mass density ([1]; 333.15 K) [kg/m3] | mass density ([1]; 343.15 K) [kg/m3] | mass density ([1]; 353.15 K) [kg/m3] | refractive index ([2]; 298.15 K) | mass density ([3]; 293.15 K, x1 = 1) [kg/m3] | mass density ([3]; 303.15 K, x1 = 1) [kg/m3] | mass density ([3]; 313.15 K, x1 = 1) [kg/m3] | mass density ([3]; 323.15 K, x1 = 1) [kg/m3] | mass density ([3]; 333.15 K, x1 = 1) [kg/m3] | further results |
| --- | --- | --- | --- | --- | --- | --- | --- | --- | --- | --- | --- | --- | --- | --- |
| c1ccccc1 [benzene] | 877.8 ± 0.1 | 868 ± 0.1 | 857.9 ± 0.1 kg/m3 | 847.4 ± 0.1 | 836.6 ± 0.1 | 825.4 ± 0.1 | 813.9 ± 0.1 | 1.5009 ± 0.0004 | – | – | – | – | – | – |
| C=Cc1ccccc1 [styrene] | 906 ± 4.5 | 896.4 ± 4.4 | 886.9 ± 4.3 kg/m3 | 877.3 ± 4.2 | 867.8 ± 4.1 | 858.2 ± 4 | 848.6 ± 4 | 1.546 ± 0.0011 | – | – | – | – | – | – |
| Cc1ccccc1 [toluene] + CC1COC(=O)O1 | – | – | – | – | – | – | – | – | 866.8 ± 0.1 | 857.5 ± 0.1 | 848.2 ± 0.1 | 838.9 ± 0.1 | 829.5 ± 0.1 | mass density ([3]; 343.15 K, x1 = 1): 820 ± 0.1 kg/m3; mass density ([3]; 353.15 K, x1 = 1): 810.5 ± 0.1 kg/m3 |
| Cc1ccccc1 [toluene] | 866.8 ± 0.1 | 857.5 ± 0.1 | 848.2 ± 0.1 kg/m3 | 838.9 ± 0.1 | 829.5 ± 0.1 | 820 ± 0.1 | 810.5 ± 0.1 | 1.4965 ± 0.0004 | – | – | – | – | – | – |
| CC1COC(=O)O1 (stereo not drawn) [4-methyl-1,3-dioxolan-2-one] | 1200.3 ± 0.1 | 1180.6 ± 0.1 | 1161.3 ± 0.1 kg/m3 and 1161.2 ± 0.1 kg/m3 | 1142.4 ± 0.1 | 1124 ± 0.1 | 1106 ± 0.1 | 1088.4 ± 0.1 | – | – | – | – | – | – | refractive index ([2]; 293.15 K): 1.42095 ± 0.0004 |
| CCc1ccccc1 [ethylbenzene] + CC1COC(=O)O1 | – | – | – | – | – | – | – | – | 867.8 ± 0.2 | 858.6 ± 0.2 | 851.8 ± 0.2 | 847.6 ± 0.2 | 845.8 ± 0.2 | – |
| CC1COC(=O)O1 (stereo not drawn) [4-methyl-1,3-dioxolan-2-one] + C=Cc1ccccc1 | – | – | – | – | – | – | – | – | – | – | – | – | – | mass density ([3]; 293.15 K, x2 = 0): 1200.3 ± 0.1 kg/m3; mass density ([3]; 303.15 K, x2 = 0): 1180.6 ± 0.1 kg/m3; mass density ([3]; 313.15 K, x2 = 0): 1161.2 ± 0.1 kg/m3; mass density ([3]; 333.15 K, x2 = 0): 1124 ± 0.1 kg/m3; mass density ([3]; 343.15 K, x2 = 0): 1106 ± 0.1 kg/m3; mass density ([3]; 353.15 K, x2 = 0): 1088.4 ± 0.1 kg/m3 |
| c1ccccc1 [benzene] + CC1COC(=O)O1 | – | – | – | – | – | – | – | – | 877.8 ± 0.1 | 868 ± 0.1 | 857.9 ± 0.1 | 847.4 ± 0.1 | 836.6 ± 0.1 | mass density ([3]; 343.15 K, x1 = 1): 825.4 ± 0.1 kg/m3; mass density ([3]; 353.15 K, x1 = 1): 813.9 ± 0.1 kg/m3 |
| CCc1ccccc1 [ethylbenzene] | 867.8 ± 0.2 | 858.6 ± 0.2 | 851.8 ± 0.2 kg/m3 | 847.6 ± 0.2 | 845.8 ± 0.2 | – | – | 1.4962 ± 0.0005 | – | – | – | – | – | – |
